Experiments:
Format in all cases: in vivo
[1] = tested on: Tobacco Budworm (Heliothis virescens); assay: Insecticidal test for tobacco budworm, treated cotton cotyledon leaf disc; parameters: key: A: 90–100; B: 80–89; C: 70–79; D: 60–69; E: 50–59; F: less than 50; G: Inactive; conditions: cotton cotyledon leaf-dip, 2nd instar larvae, 5 days
[2] = tested on: Beet Armyworm (Spodoptera exigua); assay: Insecticidal test for beet armyworm, treated lepidopteran diet; parameters: key: A: 90–100; B: 80–89; C: 70–79; D: 60–69; E: 50–59; F: less than 50; G: Inactive; conditions: on diet surface, second-instar larvae, 5 days
How it was run: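 Test compound formulated at 400 ppm in 2:1 acetone:tap water; 250 μL applied onto surface of modified Shorey lepidopteran diet, five cups per compound (one cup = one replicate). After solvent air-dried, one second-instar larva placed on treated diet per cup.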

[3] = tested on: Cabbage Looper (Trichoplusia ni); assay: Insecticidal test for cabbage looper, treated cabbage leaf disc; parameters: key: A: 90–100; B: 80–89; C: 70–79; D: 60–69; E: 50–59; F: less than 50; G: Inactive; conditions: cabbage leaf-dip, 2nd instar larvae, 5 days
[4] = tested on: Cotton Aphid (Aphis gossypii); assay: Insecticidal test for cotton aphid, spray on infested squash cotyledons; conditions: 50 ppm spray, 3 days
How it was run: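 Squash cotyledons were infested with all aphid life stages 16–20 h beforehand, then sprayed on both sides to runoff with 50 ppm compound (acetone:ethanol, 0.05% Tween 20). After 3 days at 26 °C and 40% RH, aphids were counted under a microscope, and percent control is population reduction versus untreated.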

[5] = tested on: Two-spotted Spider Mite (Tetranychus urticae); assay: Insecticidal test for two-spotted spider mite, ovicide method; parameters: key: A: 90–100; B: 80–89; C: 70–79; D: 60–69; E: 50–59; F: less than 50; G: Inactive; conditions: cotton leaf discs, 6 days
How it was run: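 Cotton leaf discs (eight, 2.2 cm each) received ten adult female two-spotted spider mites, which laid eggs for 24 hours before being taken off. The discs were then set on an agar substrate and kept at 24° C. and 90% RH for 6 days to assess ovicidal control.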

[6] = tested on: Sweetpotato Whitefly (Bemisia tabacia); assay: Insecticidal test for sweetpotato whitefly, spray on cotton plants; parameters: key: A: 90–100; B: 80–89; C: 70–79; D: 60–69; E: 50–59; F: less than 50; G: Inactive; conditions: 200 ppm spray, 13 days, large nymphs
How it was run: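 Five-week cotton plants trimmed to two leaves carried 2 days of whitefly oviposition, then adults were removed. Leaves were sprayed top and bottom with 200 ppm compound in water with 0.05% Tween 20 (acetone:ethanol co-solvent), four replicates. After 13 days at 28° C/60% RH, 3rd–4th instar nymphs were counted; percent control versus solvent-only sprayed plants.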

SMILES	TBW: activity at 400 ppm against tobacco budworm (% control rating) [1]	BAW: activity at 400 ppm against beet armyworm (% control rating) [2]	CL: activity at 400 ppm against cabbage looper (% control rating) [3]	CA: activity at 50 ppm against cotton aphid (% control rating) [4]	SM: activity against two-spotted spider mite (% control rating) [5]	WF: activity at 200 ppm against whitefly (% control rating) [6]
Cc1c(-c2nc(-c3c(F)cccc3Cl)nn2C)csc1-c1cccc(OC(F)(F)F)c1	G	G	A (90–100)	A (90–100)	F (less than 50)	B (80–89)
Cc1c(-c2nc(-c3c(F)cccc3Cl)nn2C)csc1-c1ccc(Oc2ccccc2)cc1	F (less than 50)	A (90–100)	A (90–100)	A (90–100)	A (90–100)	A (90–100)
CCCOc1ccc(-c2scc(-c3nc(-c4c(F)cccc4Cl)nn3C)c2C)cc1	G	A (90–100)	A (90–100)	A (90–100)	G	A (90–100)
Cc1c(-c2nc(-c3c(F)cccc3Cl)nn2C)csc1-c1ccc(OCC(F)(F)F)cc1	A (90–100)	A (90–100)	A (90–100)	B (80–89)	A (90–100)	A (90–100)
Cc1c(-c2nc(-c3c(F)cccc3Cl)nn2C)csc1-c1ccc(OC(F)(F)C(F)Cl)cc1 (stereo not drawn)	A (90–100)	A (90–100)	A (90–100)	B (80–89)	A (90–100)	A (90–100)
Cc1c(-c2nc(-c3c(F)cccc3Cl)nn2C)csc1-c1ccc(OC(F)(F)CF)cc1	G	A (90–100)	F (less than 50)	A (90–100)	G	A (90–100)
Cc1c(-c2nc(-c3c(F)cccc3Cl)nn2C)csc1-c1ccc(OC(F)(F)C(Cl)Cl)cc1	A (90–100)	A (90–100)	A (90–100)	B (80–89)	A (90–100)	A (90–100)
Cc1c(-c2nc(-c3c(F)cccc3Cl)nn2C)csc1-c1ccc(OC(C)C)cc1	F (less than 50)	G	G	A (90–100)	G	G
CC(C)=COc1ccc(-c2scc(-c3nc(-c4c(F)cccc4Cl)nn3C)c2C)cc1	F (less than 50)	A (90–100)	A (90–100)	A (90–100)	A (90–100)	A (90–100)
COCCOc1ccc(-c2scc(-c3nc(-c4c(F)cccc4Cl)nn3C)c2C)cc1	G	B (80–89)	B (80–89)	C (70–79)	D (60–69)	F (less than 50)
Cc1c(-c2nc(-c3c(F)cccc3Cl)nn2C)csc1-c1cccc(C(F)(F)F)c1F	G	G	A (90–100)	A (90–100)	F (less than 50)	E (50–59)
Cc1c(-c2nc(-c3c(F)cccc3Cl)nn2C)csc1-c1ccc(OC2CCCCO2)cc1 (stereo not drawn)	F (less than 50)	A (90–100)	F (less than 50)	B (80–89)	F (less than 50)	F (less than 50)
Cc1c(-c2nc(-c3c(F)cccc3Cl)nn2C)csc1-c1ccc(OC(F)(F)C(F)F)cc1	A (90–100)	A (90–100)	A (90–100)	C (70–79)	E (50–59)	A (90–100)
Cc1sc(-c2ccc(OC(F)(F)C(F)C(F)(F)F)cc2)c(C)c1-c1nc(-c2c(F)cccc2Cl)nn1C (stereo not drawn)	A (90–100)	A (90–100)	A (90–100)	E (50–59)	G	G

From patent US7056940B2, “Insecticidal 3-(2,6-disubstituted phenyl)-5-[5-arylthien-2-yl]-1,2,4-triazoles” (Dow AgroSciences LLC, priority 2001, dated 2006)
